Test results taken from US11160785B2, “Methods and compositions for improving cognitive function” (AgeneBio, Inc., priority 2013, dated 2021).
Read-outs that look alike come from different tables or passages of the source.

Key:
[1] = system: aged-impaired rats (AI); format: in vivo, rat
Experimental: FIG. 1 depicts the effects of administering levetiracetam on the spatial memory retention of ten aged-impaired rats (AI) in an eight-arm Radial Arm Maze (RAM) test. Six treatment conditions are employed: vehicle control, levetiracetam (1.25 mg/kg/day), levetiracetam (2.5 mg/kg/day), levetiracetam (5 mg/kg/day), levetiracetam (10 mg/kg/day) and levetiracetam (20 mg/kg/day). In the RAM task used, there is a one-hour delay between presentation of a subset of arms (5 arms available and 3 arms blocked) and completion of the eight-arm win-shift task (eight arms available). Rats are pre-treated 30-40 minutes before daily trials with a one-time drug/control treatment. The number of errors made by the rats during the retention phase is used as a measure of spatial memory retention. Errors are defined as instances when rats enter an arm from which food has already been retrieved in the pre-delay component of the trial or when rats re-visit an arm in the post-delay session that had already been visited. Paired t-tests are used to compare the number of errors between different doses of levetiracetam and vehicle control. […]
A Radial Arm Maze (RAM) behavioral task is one example of a cognitive test, specifically testing spacial memory (Chappell et al. Neuropharmacology 37: 481-487, 1998). The RAM apparatus consists of, e.g., eight equidistantly spaced arms. A maze arm projects from each facet of a center platform. A food well is located at the distal end of each arm. Food is used as a reward. Blocks can be positioned to prevent entry to any arm. Numerous extra maze cues surrounding the apparatus may also be provided. After habituation and training phases, spatial memory of the subjects may be tested in the RAM under control or test compound-treated conditions. As a part of the test, subjects are pretreated before trials with a vehicle control or one of a range of dosages of the test compound. At the beginning of each trial, a subset of the arms of the eight-arm maze is blocked. Subjects are allowed to obtain food on the unblocked arms to which access is permitted during this initial “information phase” of the trial. Subjects are then removed from the maze for a delay period, e.g., a 60 second delay, a 15 minute delay, a one-hour delay, a two-hour delay, a six hour delay, a 24 hour delay, or longer) between the information phase and the subsequent “retention test,” during which the barriers on the maze are removed, thus allowing access to all eight arms. […] The identity and configuration of the blocked arms vary across trials. The number of “errors” the subjects make during the retention test phase is tracked. An error occurs in the trial if the subjects entered an arm from which food had already been retrieved in the pre-delay component of the trial, or if it re-visits an arm in the post-delay session that had already been visited. A fewer number of errors would indicate better spatial memory. The number of errors made by the test subject, under various test compound treatment regimes, can then be compared for efficacy of the test compound in treating cognitive impairment associated with CNS disorders.

[2] = system: entorhinal cortex of aMCI subjects; experiment: fMRI activity in entorhinal cortex (EC) during successful memory judgments; format: in vivo, human; settings: levetiracetam 125 mg twice a day for two weeks vs placebo
[3] = system: reelin in Entorhinal Cortex (EC2); experiment: reelin in entorhinal cortex after four weeks of osmotic minipump treatment (Example 5); format: in vivo, rat; settings: levetiracetam 10 mg/kg/day in osmotic minipumps for four weeks, aged-impaired rats
[4] = system: reelin in Entorhinal Cortex (EC2); experiment: Reelin mRNA in situ hybridization in entorhinal cortex of aged-impaired rats; format: in vivo, rat; settings: 10 mg/kg/day for 28 days, compared to AI-VEH, p=0.033
Experimental: In situ hybridization was carried out as described by Haberman et al., (2008). Free-floating tissue sections were washed in 0.75% glycine in 0.1M phosphate buffer two times, followed by a single wash in phosphate buffer. After that, sections were reacted in Proteinase K buffer containing 1.0 μg/ml proteinase K for 30 minutes at 37° C. Sections were then treated with acetic anhydride solution (11.3% triethanolamine, 0.25% acetic anhydride, 0.04 M acetic acid) for 10 minutes at room temperature. This was followed by two 15-minute washes in 2× sodium chloride/citrate buffer (SSC buffer; 20× concentration, 3M NaCl, 0.3M sodium citrate). Next, sections were transferred to hybridization buffer containing 20% formamide, 0.4×Denhardt's solution, 4% dextran sulfate, and 1.6×SSC) supplemented with 0.25 mg/ml tRNA, 0.33 mg/ml sheared salmon sperm DNA, 100 mM DTT, and 1×10^7 cpm/ml 35S-UTP-labeled probe for overnight reaction at 60° C. The following day, sections were washed at 60° C. in 4×SSC/0.01M DTT and 2×SSC/50% formamide. They were then incubated with RNase (20 μg/ml) at 37° C. for 30 min. […] Slides were dried overnight, exposed to a phosphoimager screen, and quantified by using ImageQuant (GE Healthcare). Digital images were acquired of entorhinal cortical sections from the same levels for all animals and the subregion of interest was outlined and quantified. […]

[5] = cited from earlier work

Question: Which “memory performance relative to vehicle control treatment” value [1] does the source give for `CC[C@@H](C(N)=O)N1CCCC1=O` [levetiracetam, (2S)-2-(2-oxopyrrolidin-1-yl) butanamide] here?
Answer: The value was “significantly improves memory performance”.

Question: And the “human equivalent dose (HED) of the effective rat dose” value ([1]; HED for a 70 kg human)?
Answer: The value was 28-56 mg twice a day.

Question: And the “human equivalent dose (HED) of the effective rat dose” value ([1]; body surface area conversion of 5-10 mg/kg in rats)?
Answer: The value was 0.8 to 1.6 mg/kg/day.

Question: What about the “average no. of errors±standard error of the mean (SEM)” value ([1]; levetiracetam 5 mg/kg/day i.p. 30-40 min before trial, one-hour delay, n=10, vehicle 2.00±0.42) of the same compound?
Answer: The value was 0.75±0.32.

Question: And the “memory performance relative to vehicle control treatment” value ([1]; levetiracetam 10 mg/kg/day i.p., one-hour delay, paired t-test t(9)=2.37, p=0.042)?
Answer: The value was “significantly improves memory performance”.

Question: And the “performance of AI rats in the radial maze task” value ([1]; levetiracetam 20 mg/kg, FIG. 1)?
Answer: Its value is “fails to improve the performance of AI rats”.

Question: What about the “memory performance in AI rats” value ([1]; rat, in vivo) of the same compound?
Answer: Its value is “does not significantly improve the memory performance”.

Question: What about the “EC activity during memory judgments” value [2] of the same compound?
Answer: The value was “normalizes activity”.

Question: And the “reelin in Entorhinal Cortex (EC2)” value [3]?
Answer: Its value is “restores reelin in Entorhinal Cortex (EC2)”.

Question: And the “reelin mRNA expression in the lateral entorhinal cortex (EC2)” value [4]?
Answer: The value was “significantly increased the expression of reelin”.

Question: And the “plasma half-life expected in elderly” value ([5]; elderly, decreased renal function)?
Answer: The value was 9 to 10 h.

Question: What about the absorption ([5]; in vivo, po) of the same compound?
Answer: The absorption was “rapidly and almost completely absorbed”.

Question: And the “time of peak plasma concentrations” value ([5]; in vivo, po)?
Answer: Its value is “about 1 hour”.

Question: What about the plasma half-life ([5]; in vivo) of the same compound?
Answer: The plasma half-life was “approximately 7±1 hour”.

Question: And the “time to steady state” value ([5]; in vivo)?
Answer: The value was 2 days.

Question: What about the “effect of food on bioavailability” value ([5]; oral) of the same compound?
Answer: The value was “not affected by food”.
